Assay results published in US10835840B2, “Methods for in situ separation of mixtures” (INTERNATIONAL SCIENTIFIC PTY LTD, priority 2015, dated 2020).
Several values for one entry are separate records, joined by “and”; a condition that tells them apart may be missing. Equal entries are not always repeated. One block for each compound: values may come before it.

Legend:
[1] = in vivo
Experimental: The subject's volar forearm or upper arm was delineated into two 3×3 cm square regions which were designated […]. […] After an absorption period of 30 minutes, the excess mixture was removed from each region by washing with water. The region was then tape stripped using the adapted procedure of Lademann et al (The tape stripping procedure—evaluation of some critical parameters. European Journal of Pharmaceutics and Biopharmaceutics 72 (2009) 317-323).

[2] = Tape stripping after applying niacinamide gel mixture with or without weak magnetic field (ETP008), mass spectrometry; format: in vivo; design: unit not given here
From the text: ETP008—a linear array of displaced dipolar magnetic elements comprising strontium oxides dispersed in a PVC film base. The displaced dipolar magnetic elements were created in parallel with a pole flux of 450 Gauss. Each element or pole was 2.7 mm wide, creating a pair of displaced dipolar magnetic elements of pitch of 1.5 pairs per centimetre. Inter-pair flux gradient was 900 Gauss or 1350 Gauss per centimetre.
An aliquot of the niacinamide mixture was applied to both regions without rubbing. A magnetic film (ETP008) was placed in close proximity (approximately 0.5 mm) above the Active region for 5 minutes.
The Tape strip samples were then analysed for niacinamide using a validated mass spectrometry method.

[3] = Active, Total (6-10) tape strips
[4] = Passive, Total (6-10) tape strips

Penetration of Vitamin E into the skin, in words [1]: much greater penetration
Compound: Vitamin E

Niacinamide penetration, Average ([2]; Active (weak magnetic field, ETP008), Tape Strip 1): 2.907 | Niacinamide penetration, Average ([2]; Active, Tape Strip 2): 2.036 | Niacinamide penetration, Average ([2]; Active, Tape Strip 3): 1.12 | Niacinamide penetration, Average ([2]; Active, Tape Strip 4): 0.8796 | Niacinamide penetration, Average ([2]; Active, Tape Strip 5): 0.8556 | Niacinamide penetration, Average ([2]; Active, Tape Strip 6): 0.7575 | Niacinamide penetration, Average ([2]; Active, Tape Strip 7): 0.6674 | Niacinamide penetration, Average ([2]; Active, Tape Strip 8): 0.5672 | Niacinamide penetration, Average ([2]; Active, Tape Strip 9): 0.4439 | Niacinamide penetration, Average ([2]; Active, Tape Strip 10): 0.3798 | Niacinamide penetration, Average [2, 3]: 2.816 | Niacinamide penetration, Average ([2]; Passive (no weak magnetic field), Tape Strip 1): 2.428 | Niacinamide penetration, Average ([2]; Passive, Tape Strip 2): 1.353 | Niacinamide penetration, Average ([2]; Passive, Tape Strip 3): 1.193 | Niacinamide penetration, Average ([2]; Passive, Tape Strip 4): 0.9603 | Niacinamide penetration, Average ([2]; Passive, Tape Strip 5): 0.8282 | Niacinamide penetration, Average ([2]; Passive, Tape Strip 6): 0.6176 | Niacinamide penetration, Average ([2]; Passive, Tape Strip 7): 0.6112 | Niacinamide penetration, Average ([2]; Passive, Tape Strip 8): 0.4614 | Niacinamide penetration, Average ([2]; Passive, Tape Strip 9): 0.3664 | Niacinamide penetration, Average ([2]; Passive, Tape Strip 10): 0.3966 | Niacinamide penetration, Average [2, 4]: 2.453
Compound: NC(=O)c1cccnc1 [Niacinamide]
Niacinamide penetration, individual columns 1-6 ([2]; Active (weak magnetic field, ETP008, 5 minutes), Tape Strip 1, gel mixture, 30 minutes absorption): 4.463 and 1.099 and 1.021 and 3.47 and 2.739 and 4.647 | Niacinamide penetration, individual columns 1-6 ([2]; Active, Tape Strip 2): 1.782 and 0.5649 and 1.07 and 1.211 and 2.226 and 5.364 | Niacinamide penetration, individual columns 1-6 ([2]; Active, Tape Strip 3): 1.137 and 0.5147 and 1.116 and 1.035 and 1.694 and 1.226 | Niacinamide penetration, individual columns 1-6 ([2]; Active, Tape Strip 4): 0.9888 and 0.7087 and 1.098 and 0.8548 and 0.8425 and 0.7848 | Niacinamide penetration, individual columns 1-6 ([2]; Active, Tape Strip 5): 0.9146 and 0.7814 and 0.7495 and 0.8808 and 1.167 and 0.6402 | Niacinamide penetration, individual columns 1-6 ([2]; Active, Tape Strip 6): 0.895 and 0.8145 and 0.5287 and 0.8757 and 0.7531 and 0.6777 | Niacinamide penetration, individual columns 1-6 ([2]; Active, Tape Strip 7): 0.6261 and 0.5502 and 0.4859 and 0.6321 and 0.6608 and 1.049 | Niacinamide penetration, individual columns 1-6 ([2]; Active, Tape Strip 8): 0.4149 and 0.7107 and 0.4741 and 0.5541 and 0.5753 and 0.6739 | Niacinamide penetration, individual columns 1-6 ([2]; Active, Tape Strip 9): 0.4666 and 0.5396 and 0.4059 and 0.4627 and 0.4898 and 0.2985 | Niacinamide penetration, individual columns 1-6 ([2]; Active, Tape Strip 10): 0.4229 and 0.3982 and 0.3809 and 0.2336 and 0.5187 and 0.3243 | Niacinamide penetration, individual columns 1-6 [2, 3]: 2.826 and 3.013 and 2.276 and 2.758 and 2.998 and 3.024 | Niacinamide penetration, individual columns 1-6 ([2]; Passive (no weak magnetic field), Tape Strip 1, gel mixture, 30 minutes absorption): 4.785 and 1.997 and 0.8068 and 3.16 and 2.0563 and 1.761 | Niacinamide penetration, individual columns 1-6 ([2]; Passive, Tape Strip 2): 1.077 and 0.9778 and 1.464 and 0.9842 and 1.846 and 1.768 | Niacinamide penetration, individual columns 1-6 ([2]; Passive, Tape Strip 3): 0.6071 and 0.8166 and 1.131 and 1.06 and 1.456 and 2.085 | Niacinamide penetration, individual columns 1-6 ([2]; Passive, Tape Strip 4): 0.4947 and 1.297 and 0.8954 and 0.5456 and 0.8406 and 1.689 | Niacinamide penetration, individual columns 1-6 ([2]; Passive, Tape Strip 5): 0.5925 and 0.8516 and 0.935 and 0.6655 and 0.6213 and 1.303 | Niacinamide penetration, individual columns 1-6 ([2]; Passive, Tape Strip 6): 0.5736 and 0.5759 and 0.7258 and 0.5432 and 0.6385 and 0.6487 | Niacinamide penetration, individual columns 1-6 ([2]; Passive, Tape Strip 7): 0.5936 and 0.4867 and 0.5056 and 0.622 and 0.5467 and 0.9127 | Niacinamide penetration, individual columns 1-6 ([2]; Passive, Tape Strip 8): 0.5657 and 0.4006 and 0.4313 and 0.3634 and 0.4878 and 0.5195 | Niacinamide penetration, individual columns 1-6 ([2]; Passive, Tape Strip 9): 0.3146 and 0.4048 and 0.4168 and 0.4248 and 0.2422 and 0.3954 | Niacinamide penetration, individual columns 1-6 ([2]; Passive, Tape Strip 10): 0.3563 and 0.5215 and 0.2107 and 0.4442 and 0.3186 and 0.5283 | Niacinamide penetration, individual columns 1-6 [2, 4]: 2.404 and 2.39 and 2.29 and 2.398 and 2.234 and 3.005
